{"source": "patent US20230045421A1", "about": "(priority 2018, published 2023)"}
{"system": "HBV rcDNA", "assay": "HepDE19 assay with bDNA quantitation of HBV rcDNA", "format": "cell-based, hepatitis B virus", "conditions": "HepDE19 assay, inhibition of formation of rcDNA; read-out: DE-19bDNA EC50", "summary_of_the_method": "(§1)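 HepDE19 cells (HepG2-derived, Tet-regulated HBV replication) were deprived of tetracycline and then exposed to compounds for 7 days at 37 °C in 0.5% DMSO, 8-point titration from 25 μM. rcDNA was quantified by bDNA and EC50/EC90 came from 4-parameter fits. CC50 was measured by CellTiter-Glo ATP content on replicate plates after 4 days.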", "units": {"EC50": "µM"}}
{"smiles": "CC(c1cnc(OCc2ncn(C)n2)c2ccccc12)N(C)C(=O)Nc1ccc(F)c(Cl)c1", "note": "(single isomer, unassigned) [Compound 133, 3-(3-Chloro-4-fluorophenyl)-1-methyl-1-(1-(1-((1-methyl-1H-1,2,4-triazol-3-yl)methoxy)isoquinolin-4-yl)ethyl)urea]", "EC50": 5.9}
{"smiles": "CCn1cc(C(C)N(C)C(=O)Nc2ccc(F)c(Cl)c2)c2ccccc2c1=O", "note": "(single isomer, unassigned) [Compound 183, 3-(3-Chloro-4-fluorophenyl)-1-(1-(2-ethyl-1-oxo-1,2-dihydroisoquinolin-4-yl)ethyl)-1-methylurea]", "EC50": 18}
{"smiles": "COc1ncc(C(C)N(C(=O)Nc2ccc(F)c(Cl)c2)C2CC2)c2ccccc12", "note": "(single isomer, unassigned) [Compound 57, 3-(3-Chloro-4-fluorophenyl)-1-cyclopropyl-1-(1-(1-methoxyisoquinolin-4-yl)ethyl)urea]", "EC50": 0.24}
{"smiles": "CC(c1cnc(OCc2ncn(C)n2)c2ccccc12)N(CCCO)C(=O)Nc1ccc(F)c(Cl)c1", "note": "(single isomer, unassigned) [Compound 255, 3-(3-Chloro-4-fluorophenyl)-1-(3-hydroxypropyl)-1-(1-(1-((1-methyl-1H-1,2,4-triazol-3-yl)methoxy)isoquinolin-4-yl)ethyl)urea]", "EC50": 5.1}
{"smiles": "COCCN(C(=O)Nc1ccc(F)c(Cl)c1)C(C)c1cnc(OC)c2ccccc12", "note": "(single isomer, unassigned) [Compound 72, 3-(3-Chloro-4-fluorophenyl)-1-(2-methoxyethyl)-1-(1-(1-methoxyisoquinolin-4-yl)ethyl)urea]", "EC50": 21}
{"system": "HBV rcDNA", "assay": "HepDE19 assay with bDNA quantitation of HBV rcDNA", "format": "cell-based, hepatitis B virus", "conditions": "HepDE19 assay, inhibition of formation of relaxed circular DNA (rcDNA), bDNA quantitation; read-out: DE-19bDNA EC50", "summary_of_the_method": "as §1", "units": {"EC50": "µM"}}
{"smiles": "CC(C)CN(C(=O)Nc1ccc(F)c(Cl)c1)C(C)c1c[nH]c(=O)c2c(F)cccc12", "note": "(single isomer, unassigned) [Compound 361, 3-(3-Chloro-4-fluorophenyl)-1-(1-(8-fluoro-1-oxo-1,2-dihydroisoquinolin-4-yl)ethyl)-1-isobutylurea]", "EC50": 0.012}
{"smiles": "CC(c1c[nH]c(=O)c2cc(F)c(F)cc12)N(C)C(=O)NCc1ccc(F)c(Cl)c1", "note": "(single isomer, unassigned) [Compound 483, 3-(3-Chloro-4-fluorobenzyl)-1-(1-(6,7-difluoro-1-oxo-1,2-dihydroisoquinolin-4-yl)ethyl)-1-methylurea]", "EC50": 0.27}
{"smiles": "CCN(C(=O)Nc1ccc(F)cc1)C(C)c1c[nH]c(=O)c2c(F)c(F)ccc12", "note": "(single isomer, unassigned) [Compound 464, 1-(1-(7,8-Difluoro-1-oxo-1,2-dihydroisoquinolin-4-yl)ethyl)-1-ethyl-3-(4-fluorophenyl)urea]", "EC50": 2.9}
{"smiles": "CC(c1c[nH]c(=O)c2c(F)cccc12)N(C)C(=O)Nc1ccc(F)c(Cl)c1", "note": "(single isomer, unassigned) [Compound 356, 3-(3-Chloro-4-fluorophenyl)-1-(1-(8-fluoro-1-oxo-1,2-dihydroisoquinolin-4-yl)ethyl)-1-methylurea]", "EC50": 1.9}
{"smiles": "CC(c1cn(C)c(=O)c2c(F)cccc12)N(C)C(=O)Nc1ccc(F)c(Cl)c1", "note": "(single isomer, unassigned) [Compound 359, 3-(3-Chloro-4-fluorophenyl)-1-(1-(8-fluoro-2-methyl-1-oxo-1,2-dihydroisoquinolin-4-yl)ethyl)-1-methylurea]", "EC50": 0.023}
{"smiles": "CC(c1c[nH]c(=O)c2cc(F)c(F)cc12)N(C)C(=O)Nc1cc(Cl)c(F)c(Cl)c1", "note": "(single isomer, unassigned) [Compound 439, 3-(3,5-Dichloro-4-fluorophenyl)-1-(1-(6,7-difluoro-1-oxo-1,2-dihydroisoquinolin-4-yl)ethyl)-1-methylurea]", "EC50": 0.12}
{"smiles": "CC(c1c[nH]c(=O)c2c(F)cccc12)N(C)C(=O)Nc1ccc(F)c(Cl)c1", "note": "(single isomer, unassigned) [Compound 357, 3-(3-Chloro-4-fluorophenyl)-1-(1-(8-fluoro-1-oxo-1,2-dihydroisoquinolin-4-yl)ethyl)-1-methylurea]", "EC50": 0.04}
{"smiles": "Cc1cc(NC(=O)N(C)C(C)c2c[nH]c(=O)c3c(F)c(F)ccc23)ccc1F", "note": "(single isomer, unassigned) [Compound 440, 1-(1-(7,8-Difluoro-1-oxo-1,2-dihydroisoquinolin-4-yl)ethyl)-3-(4-fluoro-3-methylphenyl)-1-methylurea]", "EC50": 0.54}
{"smiles": "CC(c1cn(C)c(=O)c2c(F)c(F)ccc12)N(C)C(=O)Nc1ccc(F)c(Cl)c1", "note": "(single isomer, unassigned) [Compound 332, 3-(3-Chloro-4-fluorophenyl)-1-(1-(7,8-difluoro-2-methyl-1-oxo-1,2-dihydroisoquinolin-4-yl)ethyl)-1-methylurea]", "EC50": 3.7}
{"smiles": "CC(c1cnc(OCc2nc[nH]n2)c2cc(F)c(F)cc12)N(C)C(=O)Nc1ccc(F)c(Cl)c1", "note": "(single isomer, unassigned) [Compound 362, 1-(1-(1-((1H-1,2,4-Triazol-3-yl)methoxy)-6,7-difluoroisoquinolin-4-yl)ethyl)-3-(3-chloro-4-fluorophenyl)-1-methylurea]", "EC50": 0.89}
{"smiles": "CCN(C(=O)Nc1ccc(F)c(F)c1)C(C)c1c[nH]c(=O)c2c(F)c(F)ccc12", "note": "(single isomer, unassigned) [Compound 462, 1-(1-(7,8-Difluoro-1-oxo-1,2-dihydroisoquinolin-4-yl)ethyl)-3-(3,4-difluorophenyl)-1-ethylurea]", "EC50": 0.92}
{"smiles": "CC(c1c[nH]c(=O)c2ccccc12)N(Cc1cncs1)C(=O)Nc1ccc(F)c(Cl)c1", "note": "(single isomer, unassigned) [Compound 323, 3-(3-Chloro-4-fluorophenyl)-1-(1-(1-oxo-1,2-dihydroisoquinolin-4-yl)ethyl)-1-(thiazol-5-ylmethyl)urea]", "EC50": 0.085}
{"system": "HBV rcDNA", "assay": "HepDE19 assay with bDNA quantitation of HBV rcDNA", "format": "cell-based, hepatitis B virus", "conditions": "Hepatitis B virus, HepDE19, HepDE19 assay, inhibition of formation of rcDNA; read-out: DE-19bDNA EC50", "summary_of_the_method": "as §1", "units": {"EC50": "µM"}}
{"smiles": "CC(c1c[nH]c(=O)c2ccccc12)N(CCC#N)C(=O)Nc1ccc(F)c(Cl)c1", "note": "(racemic) [Compound 103, 3-(3-chloro-4-fluorophenyl)-1-(2-cyanoethyl)-1-(1-(1-oxo-1,2-dihydroisoquinolin-4-yl)ethyl)urea]", "EC50": 0.27}
{"smiles": "O=C(Nc1ccc(F)c(Cl)c1)N(Cc1c[nH]c(=O)c2ccccc12)C1CC1", "note": "[Compound 42, 3-(3-Chloro-4-fluorophenyl)-1-cyclopropyl-1-((1-oxo-1,2-dihydroisoquinolin-4-yl)methyl)urea]", "EC50": 0.81}
{"system": "HBV rcDNA", "assay": "HepDE19 assay with bDNA quantitation of HBV rcDNA", "format": "cell-based, hepatitis B virus", "conditions": "Hepatitis B virus, HepDE19, HepDE19 assay, inhibition of formation of relaxed circular DNA (rcDNA), bDNA quantitation; read-out: DE-19bDNA EC50", "summary_of_the_method": "as §1", "units": {"EC50": "µM"}}
{"smiles": "CNC(=O)N(C)C(C)c1c[nH]c(=O)c2ccccc12", "note": "(single isomer, unassigned) [Compound 298, 1,3-Dimethyl-1-(1-(1-oxo-1,2-dihydroisoquinolin-4-yl)ethyl)urea]", "EC50": 24}
{"smiles": "CC(c1c[nH]c(=O)c2c(F)c(F)ccc12)N(C)C(=O)Nc1ccnc(Cl)c1", "note": "(single isomer, unassigned) [Compound 454, 3-(2-Chloropyridin-4-yl)-1-(1-(7,8-difluoro-1-oxo-1,2-dihydroisoquinolin-4-yl)ethyl)-1-methylurea]", "EC50": 0.17}
{"smiles": "CC(C)CN(C(=O)Nc1ccc(F)cc1)C(C)c1cnc(-n2cncn2)c2ccccc12", "note": "(racemic) [Compound 301, 1-(1-(1-(1H-1,2,4-Triazol-1-yl)isoquinolin-4-yl)ethyl)-3-(4-fluorophenyl)-1-isobutylurea]", "EC50": 0.051}
{"system": "HBV rcDNA", "assay": "HepDE19 assay with bDNA quantitation of HBV rcDNA", "format": "cell-based, hepatitis B virus", "conditions": "Hepatitis B virus, HepDE19, read-out: DE-19bDNA EC50 (μM), HepDE19 assay, inhibition of formation of relaxed circular DNA (rcDNA), bDNA quantitation", "summary_of_the_method": "as §1", "units": {"EC50": "µM"}}
{"smiles": "CC(c1c[nH]c(=O)c2c(F)c(F)ccc12)N(C)C(=O)Nc1ccncc1", "note": "(single isomer, unassigned) [Compound 449, 1-(1-(7,8-Difluoro-1-oxo-1,2-dihydroisoquinolin-4-yl)ethyl)-1-methyl-3-(pyridin-4-yl)urea]", "EC50": 15}
